{"source": "ChEMBL document CHEMBL4673263", "about": "“Evaluation of PNU-159682 antibody drug conjugates (ADCs)” (Bioorg Med Chem Lett, 2020)", "key": {"[1]": {"assay": "Stability of the compound in rat plasma incubated for 7 days", "assay_type": "ADME, cell-free", "conditions": "168 h, time 7 day"}, "[2]": {"assay": "Stability of compound in mouse plasma incubated for 7 days", "assay_type": "ADME, cell-free", "conditions": "168 h, time 7 day"}, "HEK-293T": {"tested_on": "HEK-293T", "assay": "Cytotoxicity against HEK293T cells assessed as reduction in cell viability", "assay_type": "cell-based", "conditions": "Homo sapiens"}, "MES-SA": {"tested_on": "MES-SA", "assay": "Cytotoxicity against human MES-SA cells assessed as reduction in cell viability", "assay_type": "functional, cell-based"}, "MES-SA/Dx5": {"tested_on": "MES-SA/Dx5", "assay": "Cytotoxicity against human MES SA/DX5 cells assessed as reduction in cell viability", "assay_type": "functional, cell-based"}}}
{"smiles": "COc1cccc2c1C(=O)c1c(O)c3c(c(O)c1C2=O)C[C@@](O)(c1csc(N(C)C(=O)[C@H](C)NC(=O)[C@@H](NC(=O)CN2C(=O)C=CC2=O)C(C)C)n1)C[C@@H]3O[C@H]1C[C@H]2[C@H](OC3[C@@H](OC)OCCN32)[C@H](C)O1", "note": "(stereo partly specified)", "values": [{"measurement": "Stabilty", "setting": "[1]", "result": "Stable"}, {"measurement": "Stabilty", "setting": "[2]", "result": "Stable"}]}
{"smiles": "COc1cccc2c1C(=O)c1c(O)c3c(c(O)c1C2=O)C[C@@](O)(c1cnc(C)[nH]1)C[C@@H]3O[C@H]1C[C@H]2[C@H](O[C@@H]3[C@@H](OC)OCCN32)[C@H](C)O1", "values": [{"measurement": "EC50", "setting": "HEK-293T", "result": 0.024, "unit": "nM"}, {"measurement": "EC50", "setting": "MES-SA", "result": 0.0017, "unit": "nM"}, {"measurement": "EC50", "setting": "MES-SA/Dx5", "result": "> 0.3", "unit": "nM"}]}
{"smiles": "COc1cccc2c1C(=O)c1c(O)c3c(c(O)c1C2=O)C[C@@](O)(c1csc(C)n1)C[C@@H]3O[C@H]1C[C@H]2[C@H](O[C@@H]3[C@@H](OC)OCCN32)[C@H](C)O1", "values": [{"measurement": "EC50", "setting": "HEK-293T", "result": 0.012, "unit": "nM"}, {"measurement": "EC50", "setting": "MES-SA", "result": 0.0116, "unit": "nM"}, {"measurement": "EC50", "setting": "MES-SA/Dx5", "result": 0.0101, "unit": "nM"}]}
{"smiles": "COc1cccc2c1C(=O)c1c(O)c3c(c(O)c1C2=O)C[C@@]1(C[C@@H]3O[C@H]2C[C@H]3[C@H](O[C@@H]4[C@@H](OC)OCCN43)[C@H](C)O2)OC(=O)OCC1=O", "values": [{"measurement": "EC50", "setting": "HEK-293T", "result": 0.00069, "unit": "nM"}, {"measurement": "EC50", "setting": "MES-SA", "result": 0.0005, "unit": "nM"}, {"measurement": "EC50", "setting": "MES-SA/Dx5", "result": 0.0009, "unit": "nM"}]}
{"smiles": "COc1cccc2c1C(=O)c1c(O)c3c(c(O)c1C2=O)C[C@@](O)(c1csc(N(C)C)n1)C[C@@H]3O[C@H]1C[C@H]2[C@H](O[C@@H]3[C@@H](OC)OCCN32)[C@H](C)O1", "values": [{"measurement": "EC50", "setting": "HEK-293T", "result": 0.065, "unit": "nM"}, {"measurement": "EC50", "setting": "MES-SA", "result": 0.07, "unit": "nM"}, {"measurement": "EC50", "setting": "MES-SA/Dx5", "result": 0.113, "unit": "nM"}]}
{"smiles": "CNc1nc([C@]2(O)Cc3c(O)c4c(c(O)c3[C@@H](O[C@H]3C[C@H]5[C@H](O[C@@H]6[C@@H](OC)OCCN65)[C@H](C)O3)C2)C(=O)c2c(OC)cccc2C4=O)cs1", "values": [{"measurement": "EC50", "setting": "HEK-293T", "result": 0.052, "unit": "nM"}, {"measurement": "EC50", "setting": "MES-SA", "result": 0.047, "unit": "nM"}, {"measurement": "EC50", "setting": "MES-SA/Dx5", "result": 0.125, "unit": "nM"}]}
{"smiles": "COc1cccc2c1C(=O)c1c(O)c3c(c(O)c1C2=O)C[C@@](O)(c1nnc(C)[nH]1)C[C@@H]3O[C@H]1C[C@H]2[C@H](O[C@@H]3[C@@H](OC)OCCN32)[C@H](C)O1", "values": [{"measurement": "EC50", "setting": "HEK-293T", "result": 0.033, "unit": "nM"}, {"measurement": "EC50", "setting": "MES-SA", "result": 0.034, "unit": "nM"}, {"measurement": "EC50", "setting": "MES-SA/Dx5", "result": "> 15", "unit": "nM"}]}
{"smiles": "COc1cccc2c1C(=O)c1c(O)c3c(c(O)c1C2=O)C[C@@](O)(C(=O)CO)C[C@@H]3O[C@H]1C[C@H]2[C@H](O[C@@H]3[C@@H](OC)OCCN32)[C@H](C)O1", "values": [{"measurement": "EC50", "setting": "HEK-293T", "result": 0.00037, "unit": "nM"}, {"measurement": "EC50", "setting": "MES-SA", "result": 0.0002, "unit": "nM"}, {"measurement": "EC50", "setting": "MES-SA/Dx5", "result": 0.00038, "unit": "nM"}]}
{"smiles": "COc1cccc2c1C(=O)c1c(O)c3c(c(O)c1C2=O)C[C@@](O)(c1csc(N)n1)C[C@@H]3O[C@H]1C[C@H]2[C@H](O[C@@H]3[C@@H](OC)OCCN32)[C@H](C)O1", "values": [{"measurement": "EC50", "setting": "HEK-293T", "result": 0.051, "unit": "nM"}, {"measurement": "EC50", "setting": "MES-SA", "result": 0.046, "unit": "nM"}, {"measurement": "EC50", "setting": "MES-SA/Dx5", "result": 0.139, "unit": "nM"}]}
